Laboratory results: ChEMBL document CHEMBL1201862, “PubChem BioAssay data set” (2004)
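Briefly, cells in 96-well plates were exposed to five compound concentrations for 48 h, and endpoints were estimated by linear interpolation. Abbreviation: GI50, concentration required for 50% inhibition of growth.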 The source made the active and inactive calls. Rule as the data show it: active = GI50 up to about 1.1 µM and inactive = higher.

How the values were obtained:
Assay in all cases: growth of human tumour cells (NCI), 48 h
786-0 = system: 786-0
A549 = system: A549
CAKI-1 = system: CAKI-1
CCRF-CEM = system: CCRF-CEM
COLO 205 = system: COLO 205
DU-145 = system: DU-145
EKVX = system: EKVX
HCT-116 = system: HCT-116
HL-60 = system: HL-60
HOP-62 = system: HOP-62
HOP-92 = system: HOP-92
HT-29 = system: HT-29
IGROV-1 = system: IGROV-1
K562 = system: K562
KM12 = system: KM12
LOX IMVI = system: LOX IMVI
M14 = system: M14
MDA-MB-435 = system: MDA-MB-435
MDA-N = system: MDA-N
MOLT-4 = system: MOLT-4
NCI-H226 = system: NCI-H226
OVCAR-3 = system: OVCAR-3
OVCAR-4 = system: OVCAR-4
OVCAR-5 = system: OVCAR-5
OVCAR-8 = system: OVCAR-8
RPMI-8226 = system: RPMI-8226
RXF 393 = system: RXF 393
SF-295 = system: SF-295
SF-539 = system: SF-539
SK-MEL-28 = system: SK-MEL-28
SK-MEL-5 = system: SK-MEL-5
SK-OV-3 = system: SK-OV-3
SN12C = system: SN12C
SNB-19 = system: SNB-19
SNB-75 = system: SNB-75
SR = system: SR
SW-620 = system: SW-620
T47D = system: T47D
UO-31 = system: UO-31
A498 = system: A498
ACHN = system: ACHN
HCC 2998 = system: HCC 2998
HCT-15 = system: HCT-15
Hs-578T = system: Hs-578T
MCF7 = system: MCF7
MDA-MB-231 = system: MDA-MB-231
NCI/ADR-RES = system: NCI/ADR-RES
PC-3 = system: PC-3
SF-268 = system: SF-268
SK-MEL-2 = system: SK-MEL-2
TK-10 = system: TK-10
U-251 = system: U-251
UACC-257 = system: UACC-257
UACC-62 = system: UACC-62

Measured: GI50

O=C(O)CCC(=O)c1ccc(Cl)cc1
inactive: 786-0 > 100 µM | A549 > 100 µM | CAKI-1 > 100 µM | CCRF-CEM > 100 µM | COLO 205 > 100 µM | DU-145 > 100 µM | EKVX > 100 µM | HCT-116 > 100 µM | HL-60 > 100 µM | HOP-62 > 100 µM | HOP-92 > 100 µM | HT-29 > 100 µM | IGROV-1 > 100 µM | K562 > 100 µM | KM12 > 100 µM | LOX IMVI > 100 µM | M14 > 100 µM | MDA-MB-435 > 100 µM | MDA-N > 100 µM | MOLT-4 > 100 µM | NCI-H226 > 100 µM | OVCAR-3 > 100 µM | OVCAR-4 > 100 µM | OVCAR-5 > 100 µM | OVCAR-8 > 100 µM | RPMI-8226 > 100 µM | RXF 393 > 100 µM | SF-295 > 100 µM | SF-539 > 100 µM | SK-MEL-28 > 100 µM | SK-MEL-5 > 100 µM | SK-OV-3 > 100 µM | SN12C > 100 µM | SNB-19 > 100 µM | SNB-75 > 100 µM | SR > 100 µM | SW-620 > 100 µM | T47D > 100 µM | UO-31 > 100 µM

CC1(C)C(CCO)CC1n1ccc(=O)[nH]c1=O (stereo not given)
inactive: 786-0 > 100 µM | A498 > 100 µM | A549 > 100 µM | ACHN > 100 µM | CAKI-1 > 100 µM | CCRF-CEM > 100 µM | DU-145 > 100 µM | EKVX > 100 µM | HCC 2998 > 100 µM | HCT-116 > 100 µM | HOP-62 > 100 µM | HOP-92 > 100 µM | Hs-578T > 100 µM | K562 10.6 µM | KM12 > 100 µM | LOX IMVI > 100 µM | M14 > 100 µM | MCF7 > 100 µM | MDA-MB-231 > 100 µM | MDA-MB-435 > 100 µM | MDA-N > 100 µM | NCI-H226 > 100 µM | NCI/ADR-RES > 100 µM | OVCAR-3 > 100 µM | OVCAR-4 > 100 µM | OVCAR-5 > 100 µM | PC-3 > 100 µM | RXF 393 > 100 µM | SF-268 > 100 µM | SF-295 > 100 µM | SF-539 > 100 µM | SK-MEL-28 > 100 µM | SK-MEL-2 > 100 µM | SK-MEL-5 > 100 µM | SK-OV-3 > 100 µM | SN12C > 100 µM | SNB-19 > 100 µM | SNB-75 > 100 µM | SW-620 > 100 µM | T47D > 100 µM | TK-10 > 100 µM | U-251 > 100 µM | UACC-257 > 100 µM | UACC-62 > 100 µM | UO-31 > 100 µM
> 100 µM: HCT-15
